ChEMBL document CHEMBL2380232, “Triazole derivatives: a series of Darapladib analogues as orally active Lp-PLA2 inhibitors” (Bioorg Med Chem Lett, 2013)
Active and inactive are the calls of the source. The rule behind the calls is not given here.

Key:
Oryctolagus cuniculus [1] = species: Oryctolagus cuniculus; conditions: Plasma, 10 nM
Description: Inhibition of Lp-PLA2 in rabbit plasma using [3H]PAF as substrate at 10 nM incubated for 5 mins prior to substrate addition measured after 10 mins by liquid scintillation counting analysis relative to control

Oryctolagus cuniculus [2] = species: Oryctolagus cuniculus; conditions: Plasma, 100 nM
Description: Inhibition of Lp-PLA2 in rabbit plasma using [3H]PAF as substrate at 100 nM incubated for 5 mins prior to substrate addition measured after 10 mins by liquid scintillation counting analysis relative to control

Mus musculus = species: Mus musculus; conditions: C57, 50 mg/kg
Description: In vivo inhibition of Lp-PLA2 in C57 mouse serum using 2-thio-PAF as substrate at 50 mg/kg, po measured over 24 hrs

## CCN(CC)CCNCc1nnc(Cn2c(SCc3ccc(F)cc3)nc(=O)c3c2CCC3)n1Cc1ccc(-c2ccc(C(F)(F)F)cc2)cc1
Oryctolagus cuniculus [1]
  inhibition: 35%

## O=c1nc(SCc2ccc(F)cc2)n(Cc2nnc(CCCN3CCCCC3)n2Cc2ccc(-c3ccc(C(F)(F)F)cc3)cc2)c2c1CCC2
Oryctolagus cuniculus [2]
  inhibition: 96%
Oryctolagus cuniculus [1]
  inhibition: 76%

## CCN(CC)CCN(C)Cc1cnc(Cn2c(SCc3ccc(F)cc3)nc(=O)c3c2CCC3)n1Cc1ccc(-c2ccc(C(F)(F)F)cc2)cc1
Oryctolagus cuniculus [2]
  inhibition: 89%
Oryctolagus cuniculus [1]
  inhibition: 54%

## CN(C)CCN(C)Cc1nnc(Cn2c(SCc3ccc(F)cc3)nc(=O)c3c2CCC3)n1Cc1ccc(-c2ccc(C(F)(F)F)cc2)cc1
Oryctolagus cuniculus [1]
  inhibition: 77%

## CCN(CC)CCN(C)C(C)c1nnc(Cn2c(SCc3ccc(F)cc3)nc(=O)c3c2CCC3)n1Cc1ccc(-c2ccc(C(F)(F)F)cc2)cc1 (configuration not stated)
Mus musculus
  inhibition: Active
Oryctolagus cuniculus [1]
  inhibition: 76%

## CC(c1nnc(Cn2c(SCc3ccc(F)cc3)nc(=O)c3c2CCC3)n1Cc1ccc(-c2ccc(C(F)(F)F)cc2)cc1)N(C)CCN(C)C (configuration not stated)
Oryctolagus cuniculus [1]
  inhibition: 71%

## CCN(CC)CCCCc1nnc(Cn2c(SCc3ccc(F)cc3)nc(=O)c3c2CCC3)n1Cc1ccc(-c2ccc(C(F)(F)F)cc2)cc1
Oryctolagus cuniculus [2]
  inhibition: 95%
Mus musculus
  inhibition: inactive
Oryctolagus cuniculus [1]
  inhibition: 74%

## CCN(CC)CCN(Cc1ccc(-c2ccc(C(F)(F)F)cc2)cc1)C(=O)Cn1c(SCc2ccc(F)cc2)nc(=O)c2c1CCC2
Oryctolagus cuniculus [2]
  inhibition: 99%
Oryctolagus cuniculus [1]
  inhibition: 82%

## O=c1nc(SCc2ccc(F)cc2)n(Cc2nnc(CNCCN3CCCCC3)n2Cc2ccc(-c3ccc(C(F)(F)F)cc3)cc2)c2c1CCC2
Oryctolagus cuniculus [1]
  inhibition: 33%

## CCN(CC)CCN(Cc1nnc(Cn2c(SCc3ccc(F)cc3)nc(=O)c3c2CCC3)n1Cc1ccc(-c2ccc(C(F)(F)F)cc2)cc1)C(C)C
Oryctolagus cuniculus [2]
  inhibition: 95%
Oryctolagus cuniculus [1]
  inhibition: 33%

## CN(CCN1CCCCC1)Cc1nnc(Cn2c(SCc3ccc(F)cc3)nc(=O)c3c2CCC3)n1Cc1ccc(-c2ccc(C(F)(F)F)cc2)cc1
Oryctolagus cuniculus [2]
  inhibition: 97%
Mus musculus
  inhibition: Active
Oryctolagus cuniculus [1]
  inhibition: 75%

## COCCNCc1nnc(Cn2c(SCc3ccc(F)cc3)nc(=O)c3c2CCC3)n1Cc1ccc(-c2ccc(C(F)(F)F)cc2)cc1
Oryctolagus cuniculus [1]
  inhibition: 13%

## CN(C)[C@H]1CCN(Cc2nnc(Cn3c(SCc4ccc(F)cc4)nc(=O)c4c3CCC4)n2Cc2ccc(-c3ccc(C(F)(F)F)cc3)cc2)C1
Oryctolagus cuniculus [1]
  inhibition: 46%

## CN(Cc1ccccn1)Cc1nnc(Cn2c(SCc3ccc(F)cc3)nc(=O)c3c2CCC3)n1Cc1ccc(-c2ccc(C(F)(F)F)cc2)cc1
Oryctolagus cuniculus [1]
  inhibition: 36%

## CCN(CCN(C)C)Cc1nnc(Cn2c(SCc3ccc(F)cc3)nc(=O)c3c2CCC3)n1Cc1ccc(-c2ccc(C(F)(F)F)cc2)cc1
Oryctolagus cuniculus [1]
  inhibition: 75%

## O=c1nc(SCc2ccc(F)cc2)n(Cc2nnc(CCCN3CCCC3)n2Cc2ccc(-c3ccc(C(F)(F)F)cc3)cc2)c2c1CCC2
Oryctolagus cuniculus [2]
  inhibition: 97%
Oryctolagus cuniculus [1]
  inhibition: 75%

## CN(C)CCCN(C)Cc1nnc(Cn2c(SCc3ccc(F)cc3)nc(=O)c3c2CCC3)n1Cc1ccc(-c2ccc(C(F)(F)F)cc2)cc1
Oryctolagus cuniculus [1]
  inhibition: 73%

## O=c1nc(SCc2ccc(F)cc2)n(Cc2nnc(CNCCN3CCOCC3)n2Cc2ccc(-c3ccc(C(F)(F)F)cc3)cc2)c2c1CCC2
Oryctolagus cuniculus [1]
  inhibition: 32%

## CN(CCN1CCCCC1)Cc1cnc(Cn2c(SCc3ccc(F)cc3)nc(=O)c3c2CCC3)n1Cc1ccc(-c2ccc(C(F)(F)F)cc2)cc1
Oryctolagus cuniculus [2]
  inhibition: 92%
Oryctolagus cuniculus [1]
  inhibition: 54%

## CN(CCN1CCCC1)Cc1nnc(Cn2c(SCc3ccc(F)cc3)nc(=O)c3c2CCC3)n1Cc1ccc(-c2ccc(C(F)(F)F)cc2)cc1
Oryctolagus cuniculus [2]
  inhibition: 97%
Oryctolagus cuniculus [1]
  inhibition: 76%

## CC(c1nnc(Cn2c(SCc3ccc(F)cc3)nc(=O)c3c2CCC3)n1Cc1ccc(-c2ccc(C(F)(F)F)cc2)cc1)N(C)CCCN(C)C (configuration not stated)
Oryctolagus cuniculus [1]
  inhibition: 71%

## CN(C)[C@@H]1CCN(Cc2nnc(Cn3c(SCc4ccc(F)cc4)nc(=O)c4c3CCC4)n2Cc2ccc(-c3ccc(C(F)(F)F)cc3)cc2)C1
Oryctolagus cuniculus [1]
  inhibition: 54%

## CN(CC(=O)O)Cc1nnc(Cn2c(SCc3ccc(F)cc3)nc(=O)c3c2CCC3)n1Cc1ccc(-c2ccc(C(F)(F)F)cc2)cc1
Oryctolagus cuniculus [2]
  inhibition: 74%
Oryctolagus cuniculus [1]
  inhibition: 5%

## CCN(CC)CCCc1nnc(Cn2c(SCc3ccc(F)cc3)nc(=O)c3c2CCC3)n1Cc1ccc(-c2ccc(C(F)(F)F)cc2)cc1
Mus musculus
  inhibition: inactive
Oryctolagus cuniculus [1]
  inhibition: 73%

## CC(C)N(CCNCc1nnc(Cn2c(SCc3ccc(F)cc3)nc(=O)c3c2CCC3)n1Cc1ccc(-c2ccc(C(F)(F)F)cc2)cc1)C(C)C
Oryctolagus cuniculus [1]
  inhibition: 41%

## CCN(CC)CCN(C)Cc1nnc(Cn2c(SCc3ccc(F)cc3)nc(=O)c3c2CCC3)n1Cc1ccc(-c2ccc(C(F)(F)F)cc2)cc1
Mus musculus
  inhibition: Active
Oryctolagus cuniculus [1]
  inhibition: 72%

## O=c1nc(SCc2ccc(F)cc2)n(Cc2nnc(CNCCN3CCCC3)n2Cc2ccc(-c3ccc(C(F)(F)F)cc3)cc2)c2c1CCC2
Oryctolagus cuniculus [1]
  inhibition: 55%
